The test system of experiment [1] is THP-1. Briefly: Compound (0 uM) was screened for potentiation of IFN-gamma (100 units/mL)-induced expression of HLA-DR in THP-1 cells. Format: functional, Homo sapiens.
Experiment [2] relates to THP-1. The experiment can be described thus: Compound (0 uM) was screened for potentiation of IFN-gamma (0 units/mL)-induced expression of HLA-DR in THP-1 cells. It is filed as functional, Homo sapiens.
A further experiment has as its target Protein kinase C (PKC). The experiment can be described thus: Inhibition of protein kinase C. It is filed as protein assay, Rattus norvegicus.
The test system of experiment [3] is THP-1. The experiment can be described thus: Compound (2 uM) was screened for potentiation of IFN-gamma (100 units/mL)-induced expression of HLA-DR in THP-1 cells. Format: functional, Homo sapiens.
In experiment [4] the test system is THP-1. Briefly: Compound (2 uM) was screened for potentiation of IFN-gamma (0 units/mL)-induced expression of HLA-DR in THP-1 cells. It is filed as functional, Homo sapiens.

Broadly, the IC50 is the concentration that inhibits the measured activity by half. Low readings indicate higher potency, high ones lower potency.

In the case of `O=C1Cc2c(c3c4ccccc4oc3c3[nH]c4ccccc4c23)N1`, the Enhancement is reported as 100% with THP-1 [1], 0% with THP-1 [2], 108% in the experiment with THP-1 [3] and 0% with THP-1 [4]. This molecule gave an IC50 against Protein kinase C (PKC) above 10 µM.

Take `O=C1Cc2c(c3c(c4[nH]c5ccccc5c24)Cc2ccccc2-3)N1`: the Enhancement was found to be 100% in the experiment with THP-1 [1], 0% in the experiment with THP-1 [2], 160% in the experiment with THP-1 [3] and 0% in the experiment with THP-1 [4]. The molecule also had a concentration for half-maximal inhibition (IC50) on Protein kinase C (PKC) above 10 µM.

On to `O=C1Cc2c(c3c4ccccc4[nH]c3c3[nH]c4ccccc4c23)N1`, for which the Enhancement in the experiment with THP-1 [1] was found to be 100%; with THP-1 [2], 0%; in the experiment with THP-1 [3], 130%; in the experiment on THP-1 [4] it was 0%. Moreover, the IC50 at Protein kinase C (PKC) was above 10 µM.

In the case of `O=C1Cc2c(c3c4ccccc4sc3c3[nH]c4ccccc4c23)N1`, the Enhancement in the experiment on THP-1 [1] is recorded as 100%; in the experiment with THP-1 [2], 0%; in the experiment on THP-1 [3], 153%; in the experiment on THP-1 [4], 0%. Moreover, the IC50 at Protein kinase C (PKC) is above 10 µM.
